Values quoted from earlier work, collected in US20070275953A1 (priority 2003, published 2007).
pEC50: −log10 of the molar value.

Tested on: HIV-1 with WT (wild type) RT in P4 cells
Conditions: published values; read-out: Nevirapine activity, published values; cited from earlier work

Cc1ccnc2c1NC(=O)c1cccnc1N2C1CC1 [Nevirapine, reference compound]
pEC50: 7.00 to 8.00
